# Active and inactive are the calls of the source. No cut-off for these calls is given here.
# Species: Homo sapiens
# Test: Inhibitory activity against human DNA polymerase gamma
# Conditions: not given
row,Compound,Activity
1,O=C(NCc1ccc(F)cc1)c1nc(-c2cccs2)nc(O)c1O,inactive

# System: not listed separately
# Test: Oral bioavailability in rat
# Assay type: ADME, organism-based
# Conditions: in vivo
row,Compound,bioavailability
1,O=C(NCc1ccc(F)cc1)c1nc(-c2cccs2)nc(O)c1O,39%

# System: Hepacivirus hominis
# Test: Inhibition of HCV NS5b polymerase
# Conditions: not given
row,Compound,Activity
1,O=C(O)c1nc(-c2cccs2)nc(O)c1O,inactive

# System: Human immunodeficiency virus
# Test: Inhibition of HIV reverse transcriptase
# Conditions: not given
row,Compound,Activity
1,O=C(NCc1ccc(F)cc1)c1nc(-c2cccs2)nc(O)c1O,inactive

# Target: Human immunodeficiency virus type 1 integrase (Human immunodeficiency virus 1, UniProt Q7ZJM1)
# Sequence (Q7ZJM1 whole entry): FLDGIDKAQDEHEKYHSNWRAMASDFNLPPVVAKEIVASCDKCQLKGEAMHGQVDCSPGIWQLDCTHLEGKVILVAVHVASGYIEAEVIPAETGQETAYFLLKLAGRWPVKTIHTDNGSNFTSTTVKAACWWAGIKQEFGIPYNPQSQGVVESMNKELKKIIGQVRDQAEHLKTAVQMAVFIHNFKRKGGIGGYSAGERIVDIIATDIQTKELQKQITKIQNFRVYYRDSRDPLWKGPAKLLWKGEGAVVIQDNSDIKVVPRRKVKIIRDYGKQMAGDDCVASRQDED
# Test: Inhibition of HIV1 integrase strand transfer activity
# Conditions: not given
row,Compound,IC50
1,O=C(NCc1ccc(-c2ccccc2)cc1)c1nc(-c2cccs2)nc(O)c1O,50000 nM
2,O=C(NCc1ccc(Cl)c(Cl)c1)c1nc(-c2cccs2)nc(O)c1O,10 nM
3,O=C(NCCc1ccccc1)c1nc(-c2cccs2)nc(O)c1O,20 nM
4,O=C(NCc1ccncc1)c1nc(-c2cccs2)nc(O)c1O,16600 nM
5,O=C(Nc1cccc2ccccc12)c1nc(-c2cccs2)nc(O)c1O,30 nM
6,Cc1ccc(CNC(=O)c2nc(-c3cccs3)nc(O)c2O)cc1,70 nM
7,COc1ccc(CNC(=O)c2nc(-c3cccs3)nc(O)c2O)cc1,550 nM
8,O=C(Nc1nccs1)c1nc(-c2cccs2)nc(O)c1O,200 nM
9,O=C(NCc1ccccc1F)c1nc(-c2cccs2)nc(O)c1O,160 nM
10,CN(C(=O)c1nc(-c2cccs2)nc(O)c1O)c1cccc2ccccc12,210 nM
11,O=C(N[C@H]1CCc2ccccc21)c1nc(-c2cccs2)nc(O)c1O,20 nM
12,O=C(NCC1CCCCC1)c1nc(-c2cccs2)nc(O)c1O,50000 nM
13,O=C(Nc1cccs1)c1nc(-c2cccs2)nc(O)c1O,100 nM
14,O=C(NCc1ccc(Cl)cc1)c1nc(-c2cccs2)nc(O)c1O,20 nM
15,COc1ccccc1CNC(=O)c1nc(-c2cccs2)nc(O)c1O,90 nM
16,Cc1cccc(CNC(=O)c2nc(-c3cccs3)nc(O)c2O)c1,40 nM
17,O=C(NCc1ccccc1-c1ccccc1)c1nc(-c2cccs2)nc(O)c1O,130 nM
18,O=C(Nc1cncs1)c1nc(-c2cccs2)nc(O)c1O,2500 nM
19,Cc1ccccc1CNC(=O)c1nc(-c2cccs2)nc(O)c1O,110 nM
20,COc1cccc(CNC(=O)c2nc(-c3cccs3)nc(O)c2O)c1,50 nM
21,O=C(Nc1ccccc1)c1nc(-c2cccs2)nc(O)c1O,1000 nM
22,O=C(Nc1cc2ccccc2s1)c1nc(-c2cccs2)nc(O)c1O,10 nM
23,O=C(NCc1c[nH]c2ccccc12)c1nc(-c2cccs2)nc(O)c1O,20 nM
24,O=C(NCc1cccc(F)c1)c1nc(-c2cccs2)nc(O)c1O,70 nM
25,C[C@@H](NC(=O)c1nc(-c2cccs2)nc(O)c1O)c1ccc2ccccc2c1,610 nM
26,O=C(NCc1cccc(-c2ccccc2)c1)c1nc(-c2cccs2)nc(O)c1O,50 nM
27,O=C(Nc1csc2ccccc12)c1nc(-c2cccs2)nc(O)c1O,50 nM
28,O=C(N[C@@H]1CCc2ccccc21)c1nc(-c2cccs2)nc(O)c1O,610 nM
29,C[C@H](NC(=O)c1nc(-c2cccs2)nc(O)c1O)c1ccc2ccccc2c1,40 nM

# System: not listed separately
# Test: Plasma clearance in rat
# Assay type: ADME, organism-based
# Conditions: not given
row,Compound,clearance
1,O=C(NCc1ccc(F)cc1)c1nc(-c2cccs2)nc(O)c1O,11 mL/min/kg

# Species: Homo sapiens
# Test: Inhibitory activity against human DNA polymerase beta
# Conditions: not given
row,Compound,Activity
1,O=C(NCc1ccc(F)cc1)c1nc(-c2cccs2)nc(O)c1O,inactive

# Species: Homo sapiens
# Test: Inhibitory activity against human DNA polymerase alpha
# Conditions: not given
row,Compound,Activity
1,O=C(NCc1ccc(F)cc1)c1nc(-c2cccs2)nc(O)c1O,inactive

# From ChEMBL document CHEMBL1146293, “From dihydroxypyrimidine carboxylic acids to carboxamide HIV-1 integrase inhibitors: SAR around the amide moiety” (Bioorg Med Chem Lett, 2007)
